Data from ChEMBL document CHEMBL2439971, “Design, synthesis and antiproliferative evaluation of fluorenone analogs with DNA topoisomerase I inhibitory properties” (Bioorg Med Chem, 2013).
pIC50: −log10 of the molar value. Calls of active or inactive are those of the source. The rule behind the calls is not given here.

Key:
[1] = species: Homo sapiens; assay: Inhibition of telomerase (unknown origin) at 10 uM TRAP assay
[2] = system: CAKI-1; assay: Cytotoxicity against human CAKI-1 cells at 10 uM after 48 hrs by sulforhodamine B assay relative to control; assay type: functional
[3] = system: MDA-MB-468; assay: Cytotoxicity against human MDA-MB-468 cells at 10 uM after 48 hrs by sulforhodamine B assay relative to control; assay type: functional
[4] = system: T47D; assay: Cytotoxicity against human T47D cells at 10 uM after 48 hrs by sulforhodamine B assay relative to control; assay type: functional
[5] = system: BT-549; assay: Cytotoxicity against human BT549 cells at 10 uM after 48 hrs by sulforhodamine B assay relative to control; assay type: functional
[6] = Cytotoxicity against human Hs 578T cells at 10 uM after 48 hrs by sulforhodamine B assay relative to control; assay type: functional
[7] = system: MDA-MB-231; assay: Cytotoxicity against human MDA-MB-231 cells at 10 uM after 48 hrs by sulforhodamine B assay relative to control; assay type: functional
[8] = system: MCF7; assay: Cytotoxicity against human MCF7 cells at 10 uM after 48 hrs by sulforhodamine B assay relative to control; assay type: functional
[9] = system: DU-145; assay: Cytotoxicity against human DU145 cells at 10 uM after 48 hrs by sulforhodamine B assay relative to control; assay type: functional
[10] = system: PC-3; assay: Cytotoxicity against human PC3 cells at 10 uM after 48 hrs by sulforhodamine B assay relative to control; assay type: functional
[11] = system: UO-31; assay: Cytotoxicity against human UO31 cells at 10 uM after 48 hrs by sulforhodamine B assay relative to control; assay type: functional
[12] = system: TK-10; assay: Cytotoxicity against human TK10 cells at 10 uM after 48 hrs by sulforhodamine B assay relative to control; assay type: functional
[13] = system: SN12C; assay: Cytotoxicity against human SN12C cells at 10 uM after 48 hrs by sulforhodamine B assay relative to control; assay type: functional
[14] = system: RXF 393; assay: Cytotoxicity against human RXF393 cells at 10 uM after 48 hrs by sulforhodamine B assay relative to control; assay type: functional
[15] = system: ACHN; assay: Cytotoxicity against human ACHN cells at 10 uM after 48 hrs by sulforhodamine B assay relative to control; assay type: functional
[16] = system: 786-0; assay: Cytotoxicity against human 786-0 cells at 10 uM after 48 hrs by sulforhodamine B assay relative to control; assay type: functional
[17] = system: NCI/ADR-RES; assay: Cytotoxicity against human NCI/ADR-RES cells at 10 uM after 48 hrs by sulforhodamine B assay relative to control; assay type: functional
[18] = system: OVCAR-8; assay: Cytotoxicity against human OVCAR8 cells at 10 uM after 48 hrs by sulforhodamine B assay relative to control; assay type: functional
[19] = system: OVCAR-5; assay: Cytotoxicity against human OVCAR5 cells at 10 uM after 48 hrs by sulforhodamine B assay relative to control; assay type: functional
[20] = system: OVCAR-4; assay: Cytotoxicity against human OVCAR4 cells at 10 uM after 48 hrs by sulforhodamine B assay relative to control; assay type: functional
[21] = system: OVCAR-3; assay: Cytotoxicity against human OVCAR3 cells at 10 uM after 48 hrs by sulforhodamine B assay relative to control; assay type: functional
[22] = system: IGROV-1; assay: Cytotoxicity against human IGROV1 cells at 10 uM after 48 hrs by sulforhodamine B assay relative to control; assay type: functional
[23] = system: UACC-62; assay: Cytotoxicity against human UACC62 cells at 10 uM after 48 hrs by sulforhodamine B assay relative to control; assay type: functional
[24] = system: UACC-257; assay: Cytotoxicity against human UACC257 cells at 10 uM after 48 hrs by sulforhodamine B assay relative to control; assay type: functional
[25] = system: SK-MEL-5; assay: Cytotoxicity against human SK-MEL-5 cells at 10 uM after 48 hrs by sulforhodamine B assay relative to control; assay type: functional
[26] = system: SK-MEL-28; assay: Cytotoxicity against human SK-MEL-28 cells at 10 uM after 48 hrs by sulforhodamine B assay relative to control; assay type: functional
[27] = system: SK-MEL-2; assay: Cytotoxicity against human SK-MEL-2 cells at 10 uM after 48 hrs by sulforhodamine B assay relative to control; assay type: functional
[28] = system: MDA-MB-435; assay: Cytotoxicity against human MDA-MB-435 cells at 10 uM after 48 hrs by sulforhodamine B assay relative to control; assay type: functional
[29] = system: M14; assay: Cytotoxicity against human M14 cells at 10 uM after 48 hrs by sulforhodamine B assay relative to control; assay type: functional
[30] = system: Malme-3M; assay: Cytotoxicity against human MALME-3M cells at 10 uM after 48 hrs by sulforhodamine B assay relative to control; assay type: functional
[31] = system: LOX IMVI; assay: Cytotoxicity against human LOXIMVI cells at 10 uM after 48 hrs by sulforhodamine B assay relative to control; assay type: functional
[32] = system: SNB-75; assay: Cytotoxicity against human SNB75 cells at 10 uM after 48 hrs by sulforhodamine B assay relative to control; assay type: functional
[33] = system: U-251; assay: Cytotoxicity against human U251 cells at 10 uM after 48 hrs by sulforhodamine B assay relative to control; assay type: functional
[34] = system: SF-539; assay: Cytotoxicity against human SF539 cells at 10 uM after 48 hrs by sulforhodamine B assay relative to control; assay type: functional
[35] = system: SNB-19; assay: Cytotoxicity against human SNB19 cells at 10 uM after 48 hrs by sulforhodamine B assay relative to control; assay type: functional
[36] = system: SF-295; assay: Cytotoxicity against human SF295 cells at 10 uM after 48 hrs by sulforhodamine B assay relative to control; assay type: functional
[37] = system: SF-268; assay: Cytotoxicity against human SF268 cells at 10 uM after 48 hrs by sulforhodamine B assay relative to control; assay type: functional
[38] = system: SW-620; assay: Cytotoxicity against human SW620 cells at 10 uM after 48 hrs by sulforhodamine B assay relative to control; assay type: functional
[39] = system: KM12; assay: Cytotoxicity against human KM12 cells at 10 uM after 48 hrs by sulforhodamine B assay relative to control; assay type: functional
[40] = system: HT-29; assay: Cytotoxicity against human HT-29 cells at 10 uM after 48 hrs by sulforhodamine B assay relative to control; assay type: functional
[41] = system: HCT-15; assay: Cytotoxicity against human HCT15 cells at 10 uM after 48 hrs by sulforhodamine B assay relative to control; assay type: functional
[42] = system: HCT-116; assay: Cytotoxicity against human HCT116 cells at 10 uM after 48 hrs by sulforhodamine B assay relative to control; assay type: functional
[43] = system: HCC 2998; assay: Cytotoxicity against human HCC2998 cells at 10 uM after 48 hrs by sulforhodamine B assay relative to control; assay type: functional
[44] = system: COLO 205; assay: Cytotoxicity against human COLO205 cells at 10 uM after 48 hrs by sulforhodamine B assay relative to control; assay type: functional
[45] = system: NCI-H522; assay: Cytotoxicity against human NCI-H522 cells at 10 uM after 48 hrs by sulforhodamine B assay relative to control; assay type: functional
[46] = system: NCI-H460; assay: Cytotoxicity against human NCI-H460 cells at 10 uM after 48 hrs by sulforhodamine B assay relative to control; assay type: functional
[47] = system: NCI-H322M; assay: Cytotoxicity against human NCI-H322M cells at 10 uM after 48 hrs by sulforhodamine B assay relative to control; assay type: functional
[48] = system: NCI-H23; assay: Cytotoxicity against human NCI-H23 cells at 10 uM after 48 hrs by sulforhodamine B assay relative to control; assay type: functional
[49] = system: NCI-H226; assay: Cytotoxicity against human NCI-H226 cells at 10 uM after 48 hrs by sulforhodamine B assay relative to control; assay type: functional
[50] = system: HOP-62; assay: Cytotoxicity against human HOP62 cells at 10 uM after 48 hrs by sulforhodamine B assay relative to control; assay type: functional
[51] = Cytotoxicity against human EKVX cells at 10 uM after 48 hrs by sulforhodamine B assay relative to control; assay type: functional
[52] = system: A549; assay: Cytotoxicity against human A549 cells at 10 uM after 48 hrs by sulforhodamine B assay relative to control; assay type: functional
[53] = system: SR; assay: Cytotoxicity against human SR cells at 10 uM after 48 hrs by sulforhodamine B assay relative to control; assay type: functional
[54] = system: RPMI-8226; assay: Cytotoxicity against human RPMI8226 cells at 10 uM after 48 hrs by sulforhodamine B assay relative to control; assay type: functional
[55] = system: MOLT-4; assay: Cytotoxicity against human MOLT4 cells at 10 uM after 48 hrs by sulforhodamine B assay relative to control; assay type: functional
[56] = system: K562; assay: Cytotoxicity against human K562 cells at 10 uM after 48 hrs by sulforhodamine B assay relative to control; assay type: functional
[57] = system: HL-60(TB); assay: Cytotoxicity against human HL-60(TB) cells at 10 uM after 48 hrs by sulforhodamine B assay relative to control; assay type: functional
[58] = system: CCRF-CEM; assay: Cytotoxicity against human CCRF-CEM cells at 10 uM after 48 hrs by sulforhodamine B assay relative to control; assay type: functional
[59] = system: PC-3; assay: Cytotoxicity against human PC3 cells after 48 hrs by sulforhodamine B assay; assay type: functional, cell-based; settings: PC-3, 48 h

## O=C(CN1CCCC1)Nc1ccc2c(c1)C(=O)c1cc(NC(=O)CN3CCCC3)ccc1-2
[1]
  inhibition: inactive
[2]
  Activity: 91.43%
[3]
  Activity: 99.42%
[4]
  Activity: 105.79%
[5]
  Activity: 101.36%
[6]
  Activity: 100.68%
[7]
  Activity: 73.88%
[8]
  Activity: 62.7%
[9]
  Activity: 83.47%
[10]
  Activity: 85.69%
[11]
  Activity: 69.71%
[12]
  Activity: 91.73%
[13]
  Activity: 87.69%
[14]
  Activity: 88.07%
[15]
  Activity: 102.77%
[16]
  Activity: 90.88%
[17]
  Activity: 93.68%
[18]
  Activity: 69.01%
[19]
  Activity: 128.57%
[20]
  Activity: 71.07%
[21]
  Activity: 113.24%
[22]
  Activity: 86.73%
[23]
  Activity: 103.81%
[24]
  Activity: 106.11%
[25]
  Activity: 102.03%
[26]
  Activity: 103.08%
[27]
  Activity: 106.76%
[28]
  Activity: 84.99%
[29]
  Activity: 103.87%
[30]
  Activity: 130.28%
[31]
  Activity: 90.25%
[32]
  Activity: 88.15%
[33]
  Activity: 81.2%
[34]
  Activity: 99.41%
[35]
  Activity: 96.18%
[36]
  Activity: 86.51%
[37]
  Activity: 107.06%
[38]
  Activity: 68.12%
[39]
  Activity: 85.82%
[40]
  Activity: 19.04%
[41]
  Activity: 99.02%
[42]
  Activity: 79.74%
[43]
  Activity: 90.44%
[44]
  Activity: 89.07%
[45]
  Activity: 72.46%
[46]
  Activity: 88.56%
[47]
  Activity: 73.45%
[48]
  Activity: 93.89%
[49]
  Activity: 104.39%
[50]
  Activity: 88.02%
[51]
  Activity: 100.27%
[52]
  Activity: 76.89%
[53]
  Activity: 74.15%
[54]
  Activity: 78.34%
[55]
  Activity: 61.26%
[56]
  Activity: 68.94%
[57]
  Activity: 84.5%
[58]
  Activity: 68.3%
[59]
  pIC50: 5.11

## CCNCC(=O)Nc1ccc2c(c1)C(=O)c1cc(NC(=O)CNCC)ccc1-2
[1]
  inhibition: inactive
[2]
  Activity: 94.69%
[3]
  Activity: 63.55%
[4]
  Activity: 88.81%
[5]
  Activity: 123.2%
[6]
  Activity: 91.4%
[7]
  Activity: 77.38%
[8]
  Activity: 40.53%
[9]
  Activity: 69.67%
[10]
  Activity: 67.64%
[11]
  Activity: 89.54%
[12]
  Activity: 88.37%
[13]
  Activity: 77.91%
[14]
  Activity: 91.9%
[15]
  Activity: 69.43%
[16]
  Activity: 101.23%
[17]
  Activity: 93.46%
[18]
  Activity: 61.15%
[19]
  Activity: 116.02%
[20]
  Activity: 69.72%
[21]
  Activity: 90.91%
[22]
  Activity: 97.57%
[23]
  Activity: 110.09%
[24]
  Activity: 97.32%
[25]
  Activity: 93.43%
[26]
  Activity: 82.07%
[27]
  Activity: 106.9%
[28]
  Activity: 65.72%
[29]
  Activity: 90.37%
[30]
  Activity: 113.96%
[31]
  Activity: 72.19%
[32]
  Activity: 92.67%
[33]
  Activity: 55.71%
[34]
  Activity: 102.19%
[35]
  Activity: 95.76%
[36]
  Activity: 91.26%
[37]
  Activity: 78.21%
[38]
  Activity: 51.79%
[39]
  Activity: 77.37%
[40]
  Activity: 48.89%
[41]
  Activity: 95.25%
[42]
  Activity: 64.57%
[43]
  Activity: 85.37%
[44]
  Activity: 64.33%
[45]
  Activity: 82.16%
[46]
  Activity: 70.36%
[47]
  Activity: 67.74%
[48]
  Activity: 78.18%
[49]
  Activity: 99.42%
[50]
  Activity: 71.54%
[51]
  Activity: 90.83%
[52]
  Activity: 62.52%
[53]
  Activity: 81.75%
[54]
  Activity: 91.09%
[55]
  Activity: 61.34%
[56]
  Activity: 53.9%
[57]
  Activity: 95.53%
[58]
  Activity: 66.36%
[59]
  pIC50: 5.36
